Measured values: patent US6531462B2, “Medicament for treating obesity and improving lipid metabolism” (priority 1997, dated 2003)
“Also recorded” adds a separate entry of the source. Marks after values point to notes of the source that are not given here.

How the values were obtained:
[1] = Example 2: serum (plasma) lipid concentrations of mice fed 0.5% test compound; type: in vivo, CDF1 male mice; details: 0.5% in feed; for Free fatty acid / HDL-cholesterol / Phospholipid / Total cholesterol / Triglyceride: mean (n=6) ± standard error
Source text: (§1) As 24-alkylcholesten-3-ones, (1) 4-sitosten-3-one, (2) 6α-hydroxy-4-sitosten-3-one, and (3) 6-hydroxy-4-sitosten-3-one (α:β=2.6:1) were synthesized by using β-sitosterol (Tokyo Chemical Industries Co., Ltd.). The content ratio of 24-ethyl and 24-methyl compounds in the synthesized product was 6.5:3.5. As experimental animals, six CDF1 male mice (5-week old, Charles River Japan Inc.) were used in each experimental group. A purified feed (Modified AIN, Oriental Yeast Co.) was used as a basic feed and mixed with 0.5% test compounds to prepare test feeds. The animals were allowed to feed and water ad libitum. The animals were weighed and observed to examine general conditions twice a week. The animals were subjected to autopsy after the end of the feeding, and their bloods were collected. Lipid concentrations in the separated serums were measured by using a clinical test kit based on the enzyme method (Wako Pure Chemicals Industries Co., Ltd.). Significances of the resulting experimental values were examined by the variance analysis. The other experimental conditions were the same as in Example 1.

[2] = Example 2: body weight, feed intake, feed efficiency and intraperitoneal fat of mice fed 0.5% test compound; type: in vivo, CDF1 male mice; details: 0.5% in feed; for Feed efficiency (body weight gain/feed intake): 14 days; for Intraperitoneal fat: mean (n=6) ± standard error; for Body weight gain: total for 14 days; for Decrease of intraperitoneal fat: versus control
Source text: as §1

[3] = Example 4: body weight and body fat of mice fed 0.5% test compound for 14 days; type: in vivo, CDF1 male mice; details: 0.5% in feed; for Intraperitoneal fat: mean (n=6) ± standard error; for Decrease of body fat: versus non-treated mice
Procedure: (§2) 5-Campesten-3-one was prepared from campesterol (>97%, Tama Biochemical Industry, Ltd.). 4-Sitosten-3,6-dione was prepared from β-sitosterol (>65%, Tokyo Chemical Industry Co., Ltd.) and obtained as a mixture of 24-ethyl compound and 24-methyl compound (2:1). 5-Stigmasten-3-one was prepared from stigmasterol (>94%, Tokyo Chemical Industry, Co., Ltd.). As experimental animals, six CDF1 male mice (5-week old, Charles River Japan Inc.) were used in each experimental group. Modified AIN (Oriental Yeast Co.) was used as basic feed and mixed with 0.5% of each test compound to prepare test feeds. The animals were allowed to feed with the test food ad libitum for 14 days. Measurements of body weights and observations of general conditions of the animals were carried out twice a week, and the animals were subjected to autopsy and their bloods were collected. Serum lipid analysis was conducted by using a clinical test kit based on the enzymatic method (Wako Pure Chemicals Industries Co., Ltd.). Significances of the resulting values were examined by the one-way analysis of variance with pairwise comparison (ANOVA) according to the Bonferroni method. Other conditions were the same as those described in Example 1.

[4] = Example 4: serum lipid concentration of mice fed 0.5% test compound for 14 days; type: in vivo, CDF1 male mice; details: 0.5% in feed; for Total cholesterol / Triglyceride: mean (n=6) ± standard error
Procedure: as §2

[5] = Example 1: serum lipids and serum metabolites of mice fed feed supplemented with 0.5% test compound; type: in vivo; details: for Serum cholesterol / Serum neutral fats: ratio relative to the non-treated control group
Procedure: (§3) 5-Sitosten-3-one was prepared according to the method of Parish (Parish, E. J., et al., Synthetic Communication, 22, pp.2839-2847, 1992) by using β-sitosterol (Tokyo Chemical Industry Co., Ltd.) as a starting material and used in the experiments. The content ratio of 24-ethyl and 24-methyl compounds in the synthesized product was 6.5:3.5. As experimental animals, six CDF1 male mice (5-week old, Charles River Japan Inc.) were used in each experimental group. The animals were fed in aluminum cages for mice, and allowed to feed and water ad libitum. The animals were fed for 2 weeks under feeding conditions at a temperature of 24±1° C. and a relative humidity of 55±5%, where light and darkness were controlled to change every 12 hours, and each cage and floor mat (white flakes) were exchanged twice a week.
(§4) Modified AIN (Oriental Yeast Co.) was used as basic feed and mixed with 0.5% 5-sitosten-3-one to prepare test feeds. A feed used as a positive control was prepared by adding 0.5% of 4-cholesten-3-one (Japanese Patent Unexamined Publication No. Hei 5-170651/1993) to the basic feed. Non-treated mice as a control were fed solely with the basic feed. The basic feed was composed of 22.8% crude protein, 54.1% carbohydrates, 6.0% lipids, 4.9% fibers, 2.9% ash, and 8.7% water, and its calorie was 1,523 kJ. The feed was stored at 4° C. after preparation, and a fresh feed was supplied every day.
(§5) The animals were weighed at given intervals of time, and the average values and standard errors of the experimental groups were determined. In addition, feed consumptions were measured at given intervals of time and daily averages per mouse were determined. The animals were observed every day. After the end of the feeding, the animals were anesthetized to death with carbon dioxide gas, and bloods were collected from the vena cava to obtain serums. The animals were autopsied, and the brains, lungs, hearts, livers, spleens, kidneys, testis, adrenals and intraperitoneal fat were examined by the naked eye and weighed. As to serum lipid, neutral fats were measured by using a clinical test kit based on the enzyme method (Triglyceride-E Test, Wako Pure Chemicals Industries Co., Ltd.), and total cholesterol and cholestanol were measured by the method of Kasama (T. Kasama, et al., J. Chromatogr., 400, 241, 1987) with modifications, where the amount of benzoyl chloride was increased by 10 times, the reaction time was doubled, and the measurement was performed by using a high performance liquid chromatography system. Significant differences were determined by t-test for body weights and serum lipids on the basis of the non-treated control mice.

[6] = Example 1: body weight, body fat and feed intake of mice fed feed supplemented with 0.5% test compound; type: in vivo, CDF1 male mice; details: ratio relative to the non-treated control group, CDF1 mice
Procedure: as §3, §4, §5

[7] = Example 1: general conditions and autopsical finding; type: in vivo, CDF1 male mice; details: 0.5% in feed, 2 weeks
Procedure: as §3, §4, §5

[8] = metabolite of the test compound detected in serum, CDF1 mice
[9] = male, CDF1, mouse, in vivo, 2 weeks

For `CC[C@H](CC[C@@H](C)[C@H]1CC[C@H]2[C@@H]3CCC4=CC(=O)CC[C@]4(C)[C@H]3CC[C@]12C)C(C)C` [4-Sitosten-3-one, 4-sitosten-3-one], the Free fatty acid [1] was 0.92 ± 0.03 mEq/dl, the HDL-cholesterol [1] was 42.4 ± 6.36 mg/dL and the Phospholipid [1] was 271.0 ± 9.5 mg/dL. For the same molecule, the Total cholesterol [1] was 151.4 ± 5.7 mg/dL, the Triglyceride [1] was 130.9 ± 4.9 mg/dL and the “Feed efficiency (change)” value [2] was “only slight changes”. The “Suppression of body weight (FIG. 3)” value [2] was “no significant suppression”, the “Feed efficiency (body weight gain/feed intake)” value [2] was 0.087 and the Intraperitoneal fat [2] was 841.5 ± 69.0 mg. The Body weight gain [2] was 3.71 g/mouse and the “Decrease of intraperitoneal fat” value [2] was “not signilficant”.
For `CC[C@H](CC[C@@H](C)[C@H]1CC[C@H]2[C@@H]3CC(=O)C4=CC(=O)CC[C@]4(C)[C@H]3CC[C@]12C)C(C)C` [4-Sitosten-3,6-dione], the “Effect on the increase of body weight (FIG. 6)” value [3] was “Significant inhibitory effects”, the Intraperitoneal fat [3] was 472.7 ± 37.7 mg and the “Decrease of body fat” value [3] was ~40%. For the same molecule, the “Decrease of serum total cholesterol concentration” value [4] was ~18%, the “Decrease of serum triglyceride concentration” value [4] was ~66% and the Total cholesterol [4] was 156.3 ± 6.4 mg/dL. It also gave a Triglyceride [4] of 85.8 ± 9.2 mg/dL.
For `CC(C)CCC[C@@H](C)[C@H]1CC[C@H]2[C@@H]3C[C@@H](Br)C4=CC(=O)CC[C@]4(C)[C@H]3CC[C@]12C` [6 β-Bromo-4-cholesten-3-one, 6β-bromo-4-cholesten-3-one], the Serum cholesterol ([5]; CDF1 mice) was 98%, the Serum neutral fats ([5]; CDF1 mice) was 89% and the Body weight gain [6] was 48%. For the same molecule, the Intraperitoneal fat [6] was 62%.
With `CC(C)CCC[C@@H](C)[C@H]1CC[C@H]2[C@@H]3CCC4=CC(=O)CC[C@]4(C)[C@H]3CC[C@]12C` [4-Cholesten-3-one, 4-cholesten-3-one] the “Neutral fats (serum), mean ± standard error” value ([5]; 0.5% in feed, 2 weeks, n=6) was 197.7 ± 28.1 mg/dL, the “Total cholesterol (serum), mean ± standard error” value ([5]; 0.5% in feed, 2 weeks, n=6) was 99.2 ± 5.8 mg/dL and the Serum metabolite [5, 8] was “Cholestanol”. The Serum metabolite ([5]; metabolite of the test compound detected in serum, CDF1 mice, listed as 4-cholesten-3-one) was “cholestanol”, the Serum cholesterol ([5]; CDF1 mice) was 62% and the Serum neutral fats ([5]; CDF1 mice) was 54%. For the same molecule, the Body weight gain [6] was 72^a %, the Intraperitoneal fat [6] was 74% and the Spleens at autopsy [7] was “enlargements”.
For `CC(C)CCC[C@@H](C)[C@H]1CC[C@H]2[C@@H]3CC[C@@H]4CC(=O)CC[C@]4(C)[C@H]3CC[C@]12C` [5 β-Cholestan-3-one, 5β-cholestan-3-one], the Serum metabolite [5, 8] was “Cholestanol”, the Serum metabolite ([5]; metabolite of the test compound detected in serum, CDF1 mice, listed as 5β-cholestan-3-one) was “cholestanol or coprostanol” and the Serum cholesterol ([5]; CDF1 mice) was 75%. It also gave a Serum neutral fats ([5]; CDF1 mice) of 70%, a Body weight gain [6] of 51% and an Intraperitoneal fat [6] of 71%.
`CC(C)CCC[C@@H](C)[C@H]1CC[C@H]2[C@@H]3CC=C4CC(=O)CC[C@]4(C)[C@H]3CC[C@]12C` [5-Cholesten-3-one] gave a Serum metabolite [5, 9] of 0, a Serum cholesterol ([5]; CDF1 mice) of 68% and a Serum neutral fats ([5]; CDF1 mice) of 30%. For the same molecule, the Body weight gain [6] was −16% and the Intraperitoneal fat [6] was 37%.
With `CC[C@H](CC[C@@H](C)[C@H]1CC[C@H]2[C@@H]3CC=C4CC(=O)CC[C@]4(C)[C@H]3CC[C@]12C)C(C)C` [5-Stigmasten-3-one] the Intraperitoneal fat [3] was 745.7 ± 46.7 mg, the “Decrease of serum total cholesterol concentration” value [4] was ~49% and the “Decrease of serum triglyceride concentration” value [4] was ~68%. It also gave a Total cholesterol [4] of 97.9 ± 3.4 mg/dL and a Triglyceride [4] of 82.0 ± 6.7 mg/dL.
Work on `CC(C)CCC[C@@H](C)[C@H]1CC[C@H]2[C@@H]3C=CC4=CC(=O)CC[C@]4(C)[C@H]3CC[C@]12C` [Colesta-4,6-dien-3-one] yielded a Serum cholesterol ([5]; CDF1 mice) of 63%, a Serum neutral fats ([5]; CDF1 mice) of 60% and a Body weight gain [6] of 59%. For the same molecule, the Intraperitoneal fat [6] was 69%.
For `CC[C@H](CC[C@@H](C)[C@H]1CC[C@H]2[C@@H]3CC(O)C4=CC(=O)CC[C@]4(C)[C@H]3CC[C@]12C)C(C)C` (stereo partly drawn) [6-Hydroxy-4-sitosten-3-one (α:β = 2.6:1), 6-hydroxy-4-sitosten-3-one (α:β=2.6:1)], the “Total cholesterol and phospholipid concentrations in plasma” value [1] was “significantly decreased”, the Free fatty acid [1] was 0.77 ± 0.03 mEq/dl and the HDL-cholesterol [1] was 45.0 ± 5.8 mg/dL. It also gave a Phospholipid [1] of 211.9 ± 5.1 mg/dL, a Total cholesterol [1] of 133.3 ± 5.7 mg/dL and a Triglyceride [1] of 76.5 ± 5.2 mg/dL. For the same molecule, the “Feed efficiency (change)” value [2] was “remarkable decrease”, the “Suppression of body weight (FIG. 3)” value [2] was “potent suppressing effects” and the “Feed efficiency (body weight gain/feed intake)” value [2] was 0.044. For the same molecule, the Intraperitoneal fat [2] was 481.8 ± 51.9 mg, the Body weight gain [2] was 1.82 g/mouse and the “Decrease of intraperitoneal fat” value [2] was 50%.
With `CC(C)[C@H](C)CC[C@@H](C)[C@H]1CC[C@H]2[C@@H]3CC=C4CC(=O)CC[C@]4(C)[C@H]3CC[C@]12C` [5-Campesten-3-one, 5-campesten-3-one (24-methylcholest-5-en-3-one)] the “Effect on the increase of body weight (FIG. 6)” value [3] was “Significant inhibitory effects; also recorded: remarkably suppressed”, the Intraperitoneal fat [3] was 86.4 ± 19.9 mg and the “Decrease of body fat” value [3] was “about 90%”. For the same molecule, the “Decrease of serum total cholesterol concentration” value [4] was “about 34%”, the “Decrease of serum triglyceride concentration” value [4] was “about 45%” and the Total cholesterol [4] was 125.8 ± 4.0 mg/dL. For the same molecule, the Triglyceride [4] was 138.9 ± 18.7 mg/dL.
In the case of `CC[C@H](CC[C@@H](C)[C@H]1CC[C@H]2[C@@H]3C[C@H](O)C4=CC(=O)CC[C@]4(C)[C@H]3CC[C@]12C)C(C)C` [6α-Hydroxy-4-sitosten-3-one, 6α-hydroxy-4-sitosten-3-one], the “Total cholesterol and phospholipid concentrations in plasma” value [1] is reported as “significantly decreased”, the Free fatty acid [1] is reported as 0.69 ± 0.04 mEq/dl and the HDL-cholesterol [1] is reported as 36.7 ± 4.7 mg/dL. For the same molecule, the Phospholipid [1] was 209.6 ± 7.8 mg/dL, the Total cholesterol [1] was 142.5 ± 5.1 mg/dL and the Triglyceride [1] was 66.8 ± 3.5 mg/dL. The “Feed efficiency (change)” value [2] was “remarkable decrease”, the “Suppression of body weight (FIG. 3)” value [2] was “potent suppressing effects” and the “Feed efficiency (body weight gain/feed intake)” value [2] was 0.022. For the same molecule, the Intraperitoneal fat [2] was 369.8 ± 22.5 mg, the Body weight gain [2] was 0.86 g/mouse and the “Decrease of intraperitoneal fat” value [2] was 60%.
In the case of `CC(C)CCC[C@@H](C)[C@H]1CC[C@H]2[C@@H]3CC(O)C4=CC(=O)CC[C@]4(C)[C@H]3CC[C@]12C` (some centres unmarked) [6-Hydroxy-4-cholesten-3-one], the Serum metabolite [5, 9] is reported as 0, the Serum cholesterol ([5]; CDF1 mice) is reported as 80% and the Serum neutral fats ([5]; CDF1 mice) is reported as 47%. It also gave a Body weight gain [6] of 50% and an Intraperitoneal fat [6] of 63%.
Work on `CC(C)CCC[C@@H](C)[C@H]1CC[C@H]2[C@@H]3CC(=O)C4=CC(=O)CC[C@]4(C)[C@H]3CC[C@]12C` [4-Cholestene-3,6-dione] yielded a Serum metabolite [5, 9] of 0, a Serum cholesterol ([5]; CDF1 mice) of 60% and a Serum neutral fats ([5]; CDF1 mice) of 36%. It also gave a Body weight gain [6] of −62% and an Intraperitoneal fat [6] of 23%.
